The text below walks through data of patent US20080160059A1, “ANTIBIOTIC/ANTIMYCOTIC PREPARATION AND USE IN PLANTS” (priority 2006, published 2008).

The test system of this test is Burkholderia andropogonis. The test can be described thus: Absorbent disc test on a bacterial lawn on agar (kill zone). It is filed as cell-based. The settings on record: intermediate concentration tested; absorbent discs on bacterial lawn. An excerpt:
To determine the sensitivity of Burkholderia andropogonis, a stock was applied to commercially prepared agar-containing Petri dishes to provide dishes containing a lawn of bacteria. Then, absorbent discs containing a mixture of oxytetracycline hydrochloride and copper oxychloride, and each of the active ingredients separately, oxytetracycline hydrochloride alone and copper oxychloride alone were placed onto the bacterial lawn. The concentrations of the individual active agents in the discs were the same as that for each found in the combination. The combination and the individual actives were tested at three different concentrations. Each concentration was run in triplicate.
An analogous commercially available system for making routine determinations of bacterial and fungal sensitivity also was used.
The toxicity at each concentration was far greater than the sum of the toxicities of each active agent alone, for example, at the intermediate concentration tested, the bacteria kill zone for oxytetracycline was 3.3 mm in diameter; for copper oxychloride, the zone was 2 mm in diameter; but for the combination, the kill zone was 15 mm in diameter.

Counter-ions that a name gives are not always drawn.

Consider `[Cl-].[Cu+2].[Cu+2].[OH-].[OH-].[OH-]` [copper oxychloride], for which the “bacteria kill zone in diameter” value worked out at 2 mm.
As for `CN(C)[C@@H]1C(O)=C(C(N)=O)C(=O)[C@@]2(O)C(O)=C3C(=O)c4c(O)cccc4[C@@](C)(O)[C@H]3[C@H](O)[C@@H]12` [oxytetracycline hydrochloride], the figure is 3.3 mm.
